Measurements reported in paper PMC5502055, “Phase II study of lanreotide autogel in Japanese patients with unresectable or metastatic well-differentiated neuroendocrine tumors” (Investigational New Drugs, 2017).

Tested on: Japanese patients with grade (G) 1/G2 NET
Assay: Phase II and extension study: anti-tumor efficacy by RECIST ver. 1.1 (CBR, PFS, OS, ORR, sum of target lesion diameters)
Type: in vivo, human
Procedure: A phase II, multicenter, single-arm study was conducted at 10 sites in Japan. Patients were treated via deep subcutaneous (buttocks) injection of lanreotide at a dosage of 120 mg once every 4 weeks for a 48-week period. Patients who completed the phase II study were enrolled in an additional multicenter single-arm extension study that used the same dosage and injection methods and involved 7 of the 10 initial sites.
Japanese patients with G1 or 2 (mild/moderate malignancy) NET and an age of ≥20 years were selected for the phase II study according to the World Health Organization (WHO) 2010 classification except for those whose primary tumors were located in the lungs, bronchi, or thymus (according to the WHO 2004 classification). Other inclusion criteria were the following: metastatic disease and/or a locally advanced inoperable tumor, or refusal of surgery, and target lesions based on the Response Evaluation Criteria in Solid Tumors (RECIST) ver.1.1, and a score of 0–2 on the WHO performance status. The exclusion criteria are described in the Electronic Supplementary Material. These criteria allowed the enrolment of the same target population as that of the CLARINET study: patients with G1 or 2 NET with primary tumor sites in the pancreas, midgut, hindgut, or unknown; non-functional NET except gastrinomas adequately controlled by proton pump inhibitors for 4 months or longer; and absence of multiple endocrine neoplasia.
The primary endpoint was the clinical benefit rate (CBR) at 24 weeks after the first injection, which served to indicate and confirm the anti-tumor effects of lanreotide. The CBR was defined as the percentage of patients in the analysis set who achieved a complete response or partial response (PR) as the best overall response, or those who maintained stable disease (SD) over 24 weeks after the first injection by central review. Secondary efficacy endpoints were progression-free survival (PFS), overall survival (OS), objective response rate (ORR), and the percent change from baseline in the sum of the diameters of target lesion from baseline. The PFS was defined as the time from the first injection until progressive disease (PD) or death. Regarding tumor lesion imaging ≥4 weeks before the baseline, the investigators evaluated computed tomography (CT) or magnetic resonance imaging (MRI) data based on the RECIST (ver. 1.1). To evaluate anti-tumor effects after baseline, CT or MRI data were evaluated centrally by an independent third party based on the RECIST (ver. 1.1). During the study period, images of each patient were determined using the same method (CT or MRI), according to the standardized procedure at each site. CT or MRI was conducted every 12 weeks from the first injection. Regarding quality of life (QOL), patients completed the European Organization for Research and Treatment of Cancer (EORTC) QOL questionnaire (QLQ)-C30 (ver. 3.0) every 12 weeks during the 48 -week period after the first injection and every 24 weeks thereafter.
Full analysis set (FAS) and CLARINET-like FAS which was satisfied eligibility criteria of the CLARINET study were used for efficacy analysis. Safety analysis set which included patients who had received the study drug at least once was used for safety analysis. Per protocol set (PPS) was used for pharmacokinetic analysis.
In the primary analysis, the CBR point estimate at 24 weeks after the first injection and an exact F distribution-based 95% confidence interval (CI) were calculated. The CBR was selected as the primary endpoint, because maintaining SD was deemed beneficial and clinically meaningful for NET patients. In the secondary analysis, Kaplan–Meier curves of PFS and OS were prepared, and median values and 95% CIs were calculated. The ORRs at 24, 48, and 60 weeks after the first injection were also calculated. […]

[1] = FAS n=28, printed as decreased by

With CC(C)[C@@H]1NC(=O)[C@H](CCCCN)NC(=O)[C@@H](Cc2c[nH]c3ccccc23)NC(=O)[C@H](Cc2ccc(O)cc2)NC(=O)[C@@H](NC(=O)[C@H](N)Cc2ccc3ccccc3c2)CSSC[C@@H](C(=O)N[C@H](C(N)=O)[C@@H](C)O)NC1=O [lanreotide] the “clinical benefit rate (CBR) at 24 weeks after the first injection” value (120 mg deep s.c. every 4 weeks, full analysis set, 18/28 patients, 95% CI 44.1%, 81.4%, central review) was 64.3%, the “CBR at 24 weeks after the first injection” value (CLARINET-like FAS, 15/22 patients, 95% CI 45.1%, 86.1%) was 68.2% and the “median PFS” value (FAS n=28, Kaplan-Meier) was 9.1 months. For the same molecule, the “median PFS” value (FAS n=28, Kaplan-Meier, 95% CI 24.1, 53.1 weeks) was 36.3 weeks, the “percentage change from baseline in sum of diameters of target lesion at best time point, mean ± SD (decrease)” value [1] was 3.6 ± 21.3% and the “percentage change from baseline in sum of diameters of target lesion at best time point, minimum value (decrease)” value [1] was 58.5%. For the same molecule, the “percentage change from baseline in sum of diameters of target lesion at best time point, maximum value (increase)” value (FAS n=28, printed as increased by) was 53.4%, the “CBR Week 24” value (FAS subgroup Age (years) >65, 7/12) was 58.3 (7/12) % and the “Median time PFS” value (FAS subgroup Age (years) >65, N=12, median (95% CI)) was 36.64 weeks. The “CBR Week 24” value (FAS subgroup Age (years) ≤65, 11/16) was 68.8 (11/16) %, the “Median time PFS” value (FAS subgroup Age (years) ≤65, N=16, median (95% CI)) was 36.29 (12.29, 53.14) weeks and the “CBR Week 24” value (FAS subgroup Baseline TGR (%/month) <10, 10/13) was 76.9 (10/13) %. The “Median time PFS” value (FAS subgroup Baseline TGR (%/month) <10, N=13, median (95% CI)) was 59.43 weeks, the “CBR Week 24” value (FAS subgroup Baseline TGR (%/month) ≥10, 8/15) was 53.3 (8/15) % and the “Median time PFS” value (FAS subgroup Baseline TGR (%/month) ≥10, N=15, median (95% CI)) was 35.29 (12.14, 37.14) weeks. For the same molecule, the “CBR Week 24” value (FAS subgroup Grade of tumor Grade 1, 5/9) was 55.6 (5/9) %, the “CBR Week 24” value (FAS subgroup Grade of tumor Grade 2, 13/19) was 68.4 (13/19) % and the “Median time PFS” value (FAS subgroup Grade of tumor Grade 2, N=19, median (95% CI)) was 36.29 (21.29, 49.14) weeks. For the same molecule, the “CBR Week 24” value (FAS subgroup Hepatic tumor load (%) >10 and ≤25, 4/6) was 66.7 (4/6) %, the “Median time PFS” value (FAS subgroup Hepatic tumor load (%) >10 and ≤25, N=6, median (95% CI)) was 35.79 weeks and the “CBR Week 24” value (FAS subgroup Hepatic tumor load (%) >25 and ≤50, 1/3) was 33.3 (1/3) %. For the same molecule, the “Median time PFS” value (FAS subgroup Hepatic tumor load (%) >25 and ≤50, N=3, median (95% CI)) was 25.14 (24.14, 37.14) weeks, the “CBR Week 24” value (FAS subgroup Hepatic tumor load (%) >50, 1/1) was 100.0 (1/1) % and the “CBR Week 24” value (FAS subgroup Hepatic tumor load (%) ≥0 and ≤10, 12/18) was 66.7 (12/18) %. The “Median time PFS” value (FAS subgroup Hepatic tumor load (%) ≥0 and ≤10, N=18, median (95% CI)) was 36.36 (21.29, 59.43) weeks, the “CBR Week 24” value (FAS subgroup Ki67 index (%) >2 and ≤5, 5/8) was 62.5 (5/8) % and the “Median time PFS” value (FAS subgroup Ki67 index (%) >2 and ≤5, N=8, median (95% CI)) was 42.72 weeks. For the same molecule, the “CBR Week 24” value (FAS subgroup Ki67 index (%) >5 and <10, 8/9) was 88.9 (8/9) %, the “Median time PFS” value (FAS subgroup Ki67 index (%) >5 and <10, N=9, median (95% CI)) was 36.29 (21.29, 53.14) weeks and the “CBR Week 24” value (FAS subgroup Ki67 index (%) Unknown, 0/1) was 0.0 (0/1) %. For the same molecule, the “Median time PFS” value (FAS subgroup Ki67 index (%) Unknown, N=1, 95% CI NC) was 12.14 weeks, the “CBR Week 24” value (FAS subgroup Ki67 index (%) ≤ 2, 5/8) was 62.5 (5/8) % and the “CBR Week 24” value (FAS subgroup Ki67 index (%) ≥10 and <20, 0/2) was 0.0 (0/2) %. For the same molecule, the “Median time PFS” value (FAS subgroup Ki67 index (%) ≥10 and <20, N=2, median (95% CI)) was 12.07 (12.00, 12.14) weeks, the “CBR Week 24” value (FAS subgroup Sex Female, 6/9) was 66.7 (6/9) % and the “Median time PFS” value (FAS subgroup Sex Female, N=9, median (95% CI)) was 53.14 weeks. The “CBR Week 24” value (FAS subgroup Sex Male, 12/19) was 63.2 (12/19) %, the “Median time PFS” value (FAS subgroup Sex Male, N=19, median (95% CI)) was 36.14 (12.29, 49.14) weeks and the “CBR Week 24” value (FAS subgroup primary tumor site Foregut (except for pancreas), 0/1) was 0.0 (0/1) %. For the same molecule, the “Median time PFS” value (FAS subgroup primary tumor site Foregut (except for pancreas), N=1, 95% CI NC) was 12.00 weeks, the “CBR Week 24” value (FAS subgroup primary tumor site Hindgut, 2/8) was 25.0 (2/8) % and the “Median time PFS” value (FAS subgroup primary tumor site Hindgut, N=8, median (95% CI)) was 22.65 (12.14, 49.14) weeks. For the same molecule, the “CBR Week 24” value (FAS subgroup primary tumor site Midgut, 2/2) was 100.0 (2/2) %, the “CBR Week 24” value (FAS subgroup primary tumor site Other/ Unknown, 4/5) was 80.0 (4/5) % and the “Median time PFS” value (FAS subgroup primary tumor site Other/ Unknown, N=5, median (95% CI)) was 36.14 weeks. For the same molecule, the “CBR Week 24” value (FAS subgroup primary tumor site Pancreas, 10/12) was 83.3 (10/12) %, the “Median time PFS” value (FAS subgroup primary tumor site Pancreas, N=12, median (95% CI)) was 36.79 (24.14, 59.43) weeks and the “CBR Week 24” value (FAS subgroup prior treatment for NET Absent, 6/6) was 100.0 (6/6) %. The “CBR Week 24” value (FAS subgroup prior treatment for NET Present, 12/22) was 54.5 (12/22) %, the “Median time PFS” value (FAS subgroup prior treatment for NET Present, N=22, median (95% CI)) was 36.22 (12.29, 49.14) weeks and the “CBR Week 24” value (FAS subgroup progressive disease at baseline Absent, 13/17) was 76.5% (13/17). For the same molecule, the “Median time PFS” value (FAS subgroup progressive disease at baseline Absent, N=17, median (95% CI)) was 53.14 weeks, the “CBR Week 24” value (FAS subgroup progressive disease at baseline Present, 5/11) was 45.5% (5/11) and the “Median time PFS” value (FAS subgroup progressive disease at baseline Present, N=11, median (95% CI)) was 25.14 (12.00, 37.14) weeks. For the same molecule, the “patients without increase in sum of diameters of target lesion at best time point” value (FAS, 16 of 28 patients) was 57.1%, the “patients with PR or SD as best overall response” value (FAS, 22 of 28 patients) was 78.6% and the “ORR at Week 60” value (FAS, 1 patient with PR at 60 weeks in extension study, 95% CI 0.1%, 18.3%) was 3.6%. The “median OS” value (Kaplan-Meier) was “not reached”, the “Forty-eight weeks survival rate” value (Kaplan-Meier estimate) was 96.4% and the “median PFS” value (population with PD at baseline (11 patients)) was 6.3 months. The “median PFS” value (population with PD at baseline (11 patients), 95% CI 12.0, 37.1 weeks) was 25.1 weeks, the “median PFS” value (population without PD at baseline (17 patients)) was 13.3 months and the “median PFS” value (population without PD at baseline (17 patients), 95% CI 24.1 weeks, Not calculable) was 53.1 weeks.
